Source: ChEMBL document CHEMBL6109078, “Pyrylium derivatives as outer membrane permeabilizers against MDR gram-negative bacteria via multi-target mode of action” (Eur J Med Chem, 2025)

Key:
Format in all cases: functional
Escherichia coli [1] = assay: Antibacterial activity against Escherichia coli ATCC 25922 assessed as inhibition of bacterial growth by CLSI protocol based method
Escherichia coli [2] = assay: Antibacterial activity against ESBL positive Escherichia coli ATCC 35218 assessed as inhibition of bacterial growth by CLSI protocol based method
Acinetobacter baumannii [3] = assay: Antibacterial activity against Acinetobacter baumannii ATCC 19606 assessed as inhibition of bacterial growth by CLSI protocol based method
Klebsiella pneumoniae [4] = assay: Antibacterial activity against Klebsiella pneumoniae BAA ATCC 1706 assessed as inhibition of bacterial growth by CLSI protocol based method
Pseudomonas aeruginosa [5] = assay: Antibacterial activity Pseudomonas aeruginosa ATCC 27853 assessed as inhibition of bacterial growth by CLSI protocol based method
Klebsiella pneumoniae [6] = assay: Antibacterial activity against Klebsiella pneumoniae ATCC 700603 assessed as inhibition of bacterial growth by CLSI protocol based method
Pseudomonas aeruginosa [7] = assay: Antibacterial activity Pseudomonas aeruginosa PAO1 assessed as inhibition of bacterial growth by CLSI protocol based method
Acinetobacter baumannii [8] = assay: Antibacterial activity against multi-drug resistant Acinetobacter baumannii clinical isolate 4 assessed as inhibition of bacterial growth by CLSI protocol based method
Acinetobacter baumannii [9] = assay: Antibacterial activity against multi-drug resistant Acinetobacter baumannii clinical isolate 14 assessed as inhibition of bacterial growth by CLSI protocol based method
Acinetobacter baumannii [10] = assay: Antibacterial activity against multi-drug resistant Acinetobacter baumannii clinical isolate 43 assessed as inhibition of bacterial growth by CLSI protocol based method
Acinetobacter baumannii [11] = assay: Antibacterial activity against multi-drug resistant Acinetobacter baumannii clinical isolate 2 assessed as inhibition of bacterial growth by CLSI protocol based method
Acinetobacter baumannii [12] = assay: Antibacterial activity against multi-drug resistant Acinetobacter baumannii clinical isolate 5 assessed as inhibition of bacterial growth by CLSI protocol based method
Acinetobacter baumannii [13] = assay: Antibacterial activity against multi-drug resistant Acinetobacter baumannii clinical isolate 1 assessed as inhibition of bacterial growth by CLSI protocol based method
Acinetobacter baumannii [14] = assay: Antibacterial activity against multi-drug resistant Acinetobacter baumannii clinical isolate 10 assessed as inhibition of bacterial growth by CLSI protocol based method
Acinetobacter baumannii [15] = assay: Antibacterial activity against multi-drug resistant Acinetobacter baumannii clinical isolate 51 assessed as inhibition of bacterial growth by CLSI protocol based method

SMILES	MIC (Escherichia coli [1]) [µg/mL]	MIC (Escherichia coli [2]) [µg/mL]	MIC (Acinetobacter baumannii [3]) [µg/mL]	MIC (Klebsiella pneumoniae [4]) [µg/mL]	MIC (Pseudomonas aeruginosa [5]) [µg/mL]	MIC (Klebsiella pneumoniae [6]) [µg/mL]	MIC (Pseudomonas aeruginosa [7]) [µg/mL]	MIC (Acinetobacter baumannii [8]) [µg/mL]	MIC (Acinetobacter baumannii [9]) [µg/mL]	MIC (Acinetobacter baumannii [10]) [µg/mL]	MIC (Acinetobacter baumannii [11]) [µg/mL]	MIC (Acinetobacter baumannii [12]) [µg/mL]	MIC (Acinetobacter baumannii [13]) [µg/mL]	MIC (Acinetobacter baumannii [14]) [µg/mL]	MIC (Acinetobacter baumannii [15]) [µg/mL]
CC(C)(C)c1cc(/C=C/c2ccc(N(CCCl)CCCl)cc2)cc(C(C)(C)C)[o+]1.O=S(=O)([O-])C(F)(F)F	> 100	> 100	> 100	> 100	> 100	> 100	> 100	–	–	–	–	–	–	–	–
CC(C)(C)c1cc(NC(=O)/C=C/C=C/c2ccccc2Cl)cc(C(C)(C)C)c1	> 100	> 100	> 100	> 100	> 100	> 100	> 100	–	–	–	–	–	–	–	–
CC(C)(C)c1cc(/C=C/c2ccc(N3CCOCC3)cc2)cc(C(C)(C)C)[o+]1.O=S(=O)([O-])C(F)(F)F	> 100	> 100	> 100	> 100	> 100	> 100	> 100	–	–	–	–	–	–	–	–
CCCCN(CCCC)c1ccc(/C=C/c2cc(C(C)(C)C)[o+]c(C(C)(C)C)c2)cc1.O=S(=O)([O-])C(F)(F)F	> 100	> 100	> 100	> 100	> 100	> 100	> 100	–	–	–	–	–	–	–	–
CN(CCC#N)c1ccc(/C=C/c2cc(C(C)(C)C)[o+]c(C(C)(C)C)c2)cc1.O=S(=O)([O-])C(F)(F)F	> 100	> 100	> 100	> 100	> 100	> 100	> 100	–	–	–	–	–	–	–	–
CC(C)Oc1ccc(/C=C/c2cc(C(C)(C)C)[o+]c(C(C)(C)C)c2)cc1.O=S(=O)([O-])C(F)(F)F	> 100	> 100	> 100	> 100	> 100	> 100	> 100	–	–	–	–	–	–	–	–
Cn1c(=O)n(C)c2cc(/C=C/c3cc(C(C)(C)C)[o+]c(C(C)(C)C)c3)ccc21.O=S(=O)([O-])C(F)(F)F	> 100	> 100	> 100	> 100	> 100	> 100	> 100	–	–	–	–	–	–	–	–
CC(=O)OCCN(CCOC(C)=O)c1ccc(/C=C/c2cc(C(C)(C)C)[o+]c(C(C)(C)C)c2)cc1.O=S(=O)([O-])C(F)(F)F	> 100	> 100	> 100	> 100	> 100	> 100	> 100	–	–	–	–	–	–	–	–
CN(CCCl)c1ccc(/C=C/c2cc(C(C)(C)C)[o+]c(C(C)(C)C)c2)cc1.O=S(=O)([O-])C(F)(F)F	> 100	> 100	> 100	> 100	> 100	> 100	> 100	–	–	–	–	–	–	–	–
COc1ccc(/C=C/c2cc(C(C)(C)C)[o+]c(C(C)(C)C)c2)c(Cl)c1.O=S(=O)([O-])C(F)(F)F	> 100	> 100	> 100	> 100	> 100	> 100	> 100	–	–	–	–	–	–	–	–
CCn1c2ccccc2c2cc(/C=C/c3cc(C(C)(C)C)[o+]c(C(C)(C)C)c3)ccc21.O=S(=O)([O-])C(F)(F)F	> 100	> 100	> 100	> 100	> 100	> 100	> 100	–	–	–	–	–	–	–	–
CC(C)(C)c1cc(NC(=O)/C=C/C=C/c2ccccc2)cc(C(C)(C)C)c1	> 100	> 100	> 100	> 100	> 100	> 100	> 100	–	–	–	–	–	–	–	–
CC(C)(C)c1cc(/C=C/c2ccc3c(c2)CCO3)cc(C(C)(C)C)[o+]1.O=S(=O)([O-])C(F)(F)F	> 100	> 100	> 100	> 100	> 100	> 100	> 100	–	–	–	–	–	–	–	–
CC(C)(C)c1cc(/C=C/c2ccc(N3CCCCC3)cc2)cc(C(C)(C)C)[o+]1.O=S(=O)([O-])C(F)(F)F	> 100	> 100	50	> 100	> 100	> 100	> 100	–	–	–	–	–	–	–	–
CCOc1ccc(/C=C/c2cc(C(C)(C)C)[o+]c(C(C)(C)C)c2)cc1OC.O=S(=O)([O-])C(F)(F)F	> 100	> 100	> 100	> 100	> 100	> 100	> 100	–	–	–	–	–	–	–	–
CN(C)c1ccc(/C=C/C=C/c2cc(C(C)(C)C)[o+]c(C(C)(C)C)c2)cc1.O=S(=O)([O-])C(F)(F)F	> 100	> 100	> 100	> 100	> 100	> 100	> 100	–	–	–	–	–	–	–	–
CC(C)(C)c1cc(NC(=O)/C=C/c2cc3ccccc3o2)cc(C(C)(C)C)c1	> 100	> 100	> 100	> 100	> 100	> 100	> 100	–	–	–	–	–	–	–	–
CC(C)(C)c1cc(/C=C/c2ccc(N(c3ccccc3)c3ccccc3)cc2)cc(C(C)(C)C)[o+]1.O=S(=O)([O-])C(F)(F)F	> 100	> 100	> 100	> 100	> 100	> 100	> 100	–	–	–	–	–	–	–	–
CNC(C)[C@@H]1CC[C@@H](N)[C@@H](O[C@H]2[C@H](O)[C@@H](O[C@H]3OC[C@](C)(O)[C@H](NC)[C@H]3O)[C@H](N)C[C@@H]2N)O1.CN[C@@H]1[C@@H](O)[C@@H](O[C@@H]2[C@@H](O)[C@H](O[C@H]3O[C@H](C(C)N)CC[C@H]3N)[C@@H](N)C[C@H]2N)OC[C@]1(C)O.CN[C@@H]1[C@@H](O)[C@@H](O[C@@H]2[C@@H](O)[C@H](O[C@H]3O[C@H](CN)CC[C@H]3N)[C@@H](N)C[C@H]2N)OC[C@]1(C)O (stereo partly drawn)	–	–	0.78	1.56	0.78	6.25	0.2	> 100	> 100	> 100	> 100	> 100	> 100	> 100	> 100
CCCN(CCC)c1ccc(/C=C/c2cc(C(C)(C)C)[o+]c(C(C)(C)C)c2)cc1.O=S(=O)([O-])C(F)(F)F	> 100	> 100	> 100	> 100	> 100	> 100	> 100	–	–	–	–	–	–	–	–
CCN(CCCl)c1ccc(/C=C/c2cc(C(C)(C)C)[o+]c(C(C)(C)C)c2)cc1.O=S(=O)([O-])C(F)(F)F	> 100	> 100	> 100	> 100	> 100	> 100	> 100	–	–	–	–	–	–	–	–
